In patent US9212135B2, “Phenylthioacetate compounds, compositions and methods of use” (Ardea Biosciences, Inc., priority 2010, dated 2015):
pEC50: −log10 of the molar value.

Molecular target: T1, URAT1 (Homo sapiens, UniProt Q96S37)
T1 sequence (Q96S37 1-553): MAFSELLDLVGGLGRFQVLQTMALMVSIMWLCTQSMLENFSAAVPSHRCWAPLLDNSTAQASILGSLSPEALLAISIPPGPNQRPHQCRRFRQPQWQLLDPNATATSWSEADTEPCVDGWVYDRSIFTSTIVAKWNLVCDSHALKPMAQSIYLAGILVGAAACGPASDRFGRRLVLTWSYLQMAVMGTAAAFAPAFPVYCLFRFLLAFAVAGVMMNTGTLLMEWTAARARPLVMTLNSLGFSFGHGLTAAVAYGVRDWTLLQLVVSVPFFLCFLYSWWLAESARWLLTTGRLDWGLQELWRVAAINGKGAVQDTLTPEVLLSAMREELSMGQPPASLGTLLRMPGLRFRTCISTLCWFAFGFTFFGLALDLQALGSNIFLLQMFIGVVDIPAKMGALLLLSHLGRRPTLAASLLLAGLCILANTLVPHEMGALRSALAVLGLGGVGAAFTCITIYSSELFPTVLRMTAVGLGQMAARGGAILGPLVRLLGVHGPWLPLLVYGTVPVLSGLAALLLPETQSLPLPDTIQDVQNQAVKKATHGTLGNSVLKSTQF
Assay: URAT1-model assay (14C-uric acid transport in HEK293/URAT1-model cells)
Conditions: 125 μM 14C-uric acid, 10 minutes at room temperature, read-out: URAT-1 model cell-based C14 EC50 Ranking
Description: HEK293 human embryonic kidney cells (ATCC# CRL-1573) were propagated in EMEM tissue culture medium as described by ATCC in an atmosphere of 5% CO2 and 95% air. Transfections of HEK293 cells with a model URAT1 construct was performed using L2000 transfection reagent (Invitrogen) as described by the manufacturer. After 24 h the transfected cells were split into 10 cm tissue culture plates and grown for 1 day after which the medium was replaced with fresh growth medium containing G418 (Gibco) at 0.5 mg/ml final concentration. Drug-resistant colonies were selected after approximately 8 days and then tested for ^14C-uric acid transport activity. The HEK293/URAT1-model cells are plated on Poly-D-Lysine Coated 96-well Plates at a density of 125,000 cells per well.
Cells were grown overnight (20-26 hours) at 37° C. in an incubator. Plates were allowed to come to room temperature and media was washed out with one wash of 250 μl of Wash Buffer (125 mM Na Gluconate, 10 mM Hepes ph 7.3). Compound or vehicle is added in assay buffer with ^14C-Uric Acid for a final concentration of 125 μM Uric Acid with a specific activity of 54 mCi/mmol. Assay Buffer is 125 mM Sodium Gluconate, 4.8 mM Potassium Gluconate, 1.2 mM Potassium phosphate, monobasic, 1.2 mM magnesium sulfate, 1.3 mM Ca Gluconate, 5.6 mM Glucose, 25 mM HEPES, pH 7.3. Plates were incubated at room temperature for 10 minutes then washed 3 times with 50 μl Wash Buffer and 3 times with 250 μl Wash Buffer. Microscint 20 Scintillation Fluid was added and plates were incubated overnight at room temperature to equilibrate. Plates are then read on the TopCount Plate Reader and an EC50 value generated. (See Enomoto et al, Nature, 2002, 417, 447-451 and Anzai et al, J. Biol. Chem., 2004, 279, 45942-45950.)
Compounds as described herein were tested according to the protocol described above for the URAT-1 model assay; the results are shown in the table below wherein: […]

pEC50	Compound
7.30 to 9.00	N#Cc1ccc(-c2cc(F)ccc2SC2(C(=O)O)CCC2)cc1 [Example 1G]
5.00 to 6.30	CC(C)(Sc1ccccc1-c1ccc(C(N)=O)cc1)C(=O)O [Example 1B]
7.30 to 9.00	N#Cc1ccc(-c2ccccc2SC2(C(=O)O)CCC2)cc1 [Example 1D]
6.30 to 7.30	O=C(O)C1(Sc2ccccc2-c2ccc(CO)cc2)CCC1 [Example 1E]
5.00 to 6.30	O=C(O)C1(Sc2ccc(F)cc2-c2ccc(C3CC3)cc2)CCC1 [Example 1F]
6.30 to 7.30	CC(C)(Sc1ccccc1-c1ccc(CO)cc1)C(=O)O [Example 1C]
